Laboratory results published in ChEMBL document CHEMBL1128193, “4-(Heteroarylthio)-2-biphenylyltetrazoles as nonpeptide angiotensin II antagonists” (J Med Chem, 1995).

These molecules were tested against T1, Angiotensin II receptor (Rattus norvegicus, UniProt P29089+P25095+P35351) (assay: Displacement of [3H]-AII from the Angiotensin II receptor isolated from the liver of rats).
T1 sequence (P29089 whole entry): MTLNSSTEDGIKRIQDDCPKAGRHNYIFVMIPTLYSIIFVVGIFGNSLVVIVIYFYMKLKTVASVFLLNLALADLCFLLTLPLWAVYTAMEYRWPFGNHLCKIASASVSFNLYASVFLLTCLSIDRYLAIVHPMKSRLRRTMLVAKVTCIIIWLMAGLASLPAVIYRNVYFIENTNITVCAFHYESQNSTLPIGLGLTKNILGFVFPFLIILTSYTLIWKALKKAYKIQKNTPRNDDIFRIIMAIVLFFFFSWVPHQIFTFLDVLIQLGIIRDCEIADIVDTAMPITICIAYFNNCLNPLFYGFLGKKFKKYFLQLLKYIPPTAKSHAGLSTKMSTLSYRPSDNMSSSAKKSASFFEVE
T1 sequence (P25095 whole entry): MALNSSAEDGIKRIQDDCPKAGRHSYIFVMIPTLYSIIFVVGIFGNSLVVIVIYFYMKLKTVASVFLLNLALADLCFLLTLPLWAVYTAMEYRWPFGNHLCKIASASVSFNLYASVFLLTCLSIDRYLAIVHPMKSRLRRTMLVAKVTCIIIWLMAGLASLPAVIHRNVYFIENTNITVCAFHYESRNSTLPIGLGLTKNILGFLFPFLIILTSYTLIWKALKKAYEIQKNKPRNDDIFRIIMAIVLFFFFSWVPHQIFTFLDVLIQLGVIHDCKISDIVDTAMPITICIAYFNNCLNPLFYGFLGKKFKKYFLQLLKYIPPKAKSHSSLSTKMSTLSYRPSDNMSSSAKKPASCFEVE
T1 sequence (P35351 whole entry): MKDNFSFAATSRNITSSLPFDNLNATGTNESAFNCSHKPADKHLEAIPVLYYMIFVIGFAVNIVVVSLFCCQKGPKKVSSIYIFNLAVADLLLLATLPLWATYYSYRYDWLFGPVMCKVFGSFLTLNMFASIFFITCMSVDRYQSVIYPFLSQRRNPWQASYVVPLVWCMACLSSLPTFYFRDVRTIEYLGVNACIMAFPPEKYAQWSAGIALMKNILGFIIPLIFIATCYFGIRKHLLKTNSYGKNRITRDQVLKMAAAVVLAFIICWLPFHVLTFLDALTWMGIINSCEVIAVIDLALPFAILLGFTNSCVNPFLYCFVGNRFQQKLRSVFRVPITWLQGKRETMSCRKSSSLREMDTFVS

IC50 [nM]	SMILES
350	Cc1nc(Sc2ccc(-c3ccccc3-c3nn[nH]n3)cc2)c2ccccc2n1
20	CCc1cc(Sc2ccc(-c3ccccc3-c3nn[nH]n3)cc2)c2ncccc2n1
> 10000	Cc1nc(Sc2ccc(-c3ccccc3-c3nn[nH]n3)cc2)c2cc[nH]c2n1

The next lines start with the molecule.

SMILES	IC50 [nM]
Cc1cc(SCc2ccc(-c3ccccc3-c3nn[nH]n3)cc2)c2ccccc2n1	370
Cc1cc(Sc2ccc(-c3ccccc3-c3nnn(C(c4ccccc4)(c4ccccc4)c4ccccc4)n3)cc2)c2ccccc2n1	4700
Cc1cc(S(=O)(=O)c2ccc(-c3ccccc3-c3nn[nH]n3)cc2)c2ccccc2[n+]1[O-]	> 10000
Cc1cc(OCc2ccc(-c3ccccc3-c3nn[nH]n3)cc2)c2ccccc2n1	31
Cc1cc(CCc2ccc(-c3ccccc3-c3nn[nH]n3)cc2)c2ccccc2n1	270
